From US20260022143A1, “Cyclic Peptide Inhibitors of IL-23” (JANSSEN PHARMACEUTICA NV, priority 2022, published 2026)
Read-outs that look alike come from different tables or passages of the source. Starred links: 1 amine or outer side, 2 acyl side, 3 side chain; linkers in the order of their positions; H or OH if unused. Positions of bridges follow the written chain, without caps; N, C: chain ends. Non-standard residues stand in square brackets, D forms with d. Residues, ends and D or L forms follow the SMILES beside them. Groups on a side chain read outwards from the residue. *: point of attachment. Me3N+(CH2)2O(CH2)2O(CH2)2CO = C[N+](C)(C)CCOCCOCCC(=O)*; CH2CH2OCH2CH2OCH2CH2NMe3+ = C[N+](C)(C)CCOCCOCC*; Trp(7-Me) = Cc1cccc2c(C[C@H](N)C(=O)O)c[nH]c12; Abu(4-yl) = O=C([C@H](CC[*:3])N[*:1])[*:2]; γGlu = O=C(O)[C@H](CCC(=O)[*:2])N[*:1]; 2Nal = N[C@@H](Cc1ccc2ccccc2c1)C(=O)O; 3Pal = N[C@@H](Cc1cccnc1)C(=O)O; Lys(Me) = CNCCCC[C@H](N)C(=O)O; NMeK = CN[C@@H](CCCCN)C(=O)O; Pen = CC(C)(S)[C@H](N)C(=O)O; Lauroyl = CCCCCCCCCCCC(=O)*; X8 = C[N+](C)(C)CCCCCCCC*; αMeC = C[C@](N)(CS)C(=O)O; Thp = NC1(C(=O)O)CCOCC1; X3 = C[N+](C)(C)CCCCC*; AEEA = NCCOCCOCC(=O)O; Me2NCH2CH2 = CN(C)CC*; Sar = CNCC(=O)O

What was measured:
[1] = Exposed Polar Surface Area (EPSA); type: physicochemical; details: SFC on Chirex 3014 column, sample 1 mM DMSO stock
Method in brief: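 SFC retention on a Chirex 3014 (S-valine/(R)-1-(α-naphthyl)ethylamine) column at 35 °C, 4 mL/min, 14 MPa outlet, 5–60% methanol/20 mM ammonium formate gradient in CO2. Retention times converted to EPSA (Å²) via linear calibration with 8 standards; samples from 1 mM DMSO stock, run in duplicate.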

IL-23R = target: T1, IL-23R (Homo sapiens, UniProt Q5VWK5); experiment: IL23R Reporter Assay; type: cell-based; details: HEK293 cells containing IL-23R, IL-12RP1 and STAT-inducible firefly luciferase reporter; 10 ng/mL IL-23 (EC90); 5 h at 37° C.; read-out: IL23R Reporter Assay
T1 construct: host or cells: HEK293
T1 sequence (Q5VWK5 24-629): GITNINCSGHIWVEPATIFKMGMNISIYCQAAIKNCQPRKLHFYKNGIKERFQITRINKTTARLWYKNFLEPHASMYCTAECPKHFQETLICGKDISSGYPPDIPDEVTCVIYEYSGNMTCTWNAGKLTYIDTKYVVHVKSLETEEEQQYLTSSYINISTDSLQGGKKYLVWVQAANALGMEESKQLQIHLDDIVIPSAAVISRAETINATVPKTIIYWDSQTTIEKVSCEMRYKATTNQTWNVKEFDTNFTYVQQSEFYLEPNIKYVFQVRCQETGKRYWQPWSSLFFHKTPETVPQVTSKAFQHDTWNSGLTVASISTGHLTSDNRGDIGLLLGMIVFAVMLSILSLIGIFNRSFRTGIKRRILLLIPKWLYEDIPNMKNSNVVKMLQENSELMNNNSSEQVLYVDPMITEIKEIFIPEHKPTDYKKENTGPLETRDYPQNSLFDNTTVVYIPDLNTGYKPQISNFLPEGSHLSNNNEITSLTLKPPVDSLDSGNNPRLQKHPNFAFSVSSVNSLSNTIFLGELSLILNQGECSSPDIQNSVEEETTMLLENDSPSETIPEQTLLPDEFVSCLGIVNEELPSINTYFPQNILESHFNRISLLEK

EPSA ([1]; read-out: EPSA) [A^2]	IC50 (IL-23R) [nM]	Compound	EPSA [1] [Å^2]
169	3.8	CC(=O)NCCCC[C@@H]1NC(=O)[C@H](Cc2c[nH]c3c(-c4cccc(NC(C)=O)c4)cccc23)NC(=O)[C@H]([C@@H](C)O)NC(=O)[C@H](CC(N)=O)NC(=O)[C@@H](NC(C)=O)C(C)(C)SSC(C)(C)[C@@H](C(=O)N[C@@H](Cc2ccc(OCCCCC[N+](C)(C)C)cc2)C(=O)N[C@@H](Cc2ccc3ccccc3c2)C(=O)NC2(C(=O)N[C@@H](CCCCN(C)C(C)=O)C(=O)N[C@@H](CC(N)=O)C(=O)N[C@@H](Cc3cncc(C)c3)C(=O)N(C)CC(N)=O)CCOCC2)NC1=O [compound 502, MeCO-Pen(3)-N-T-7(3NAcPh)W-K(Ac)-Pen(3)-TMAPF-2Nal-THP-K(NMeAc)-N-5MePyridinAla-Sar-CONH2]	
151	1.8	CC(=O)NC(COCCOCC[N+](C)(C)C)C(=O)N[C@@H]1C(=O)N[C@@H](CC(=O)N(C)C)C(=O)N[C@@H]([C@@H](C)O)C(=O)N[C@@H](Cc2c[nH]c3c(C)cccc23)C(=O)N[C@@H](CCCCN(C)C(C)=O)C(=O)N[C@H](C(=O)N[C@@H](Cc2ccc(OCCOCCOCC[N+](C)(C)C)cc2)C(=O)N[C@@H](Cc2ccc3ccccc3c2)C(=O)NC2(C(=O)N[C@@H](CCCCN(C)C(C)=O)C(=O)N[C@@H](CC(N)=O)C(=O)N[C@@H](Cc3cccnc3)C(=O)N(C)CC(=O)N(C)C)CCOCC2)C(C)(C)SSC1(C)C (relative stereo) [compound 319, MeCO-APEG2Ser(R*)-Pen(3)-N(N(Me)2)-T-7MeW-K(NMeAc)-Pen(3)-APEG3F-2Nal-THP-K(NMeAc)-N-3Pya-Sar-CON(Me)2]	
168	7.2	CC(=O)NCCCC[C@@H]1NC(=O)[C@H](Cc2c[nH]c3c(C)cccc23)NC(=O)[C@H]([C@@H](C)O)NC(=O)[C@H](CC(N)=O)NC(=O)[C@@H](NC(C)=O)C(C)(C)SSC(C)(C)[C@@H](C(=O)N[C@@H](Cc2ccc(OCCCCC[N+](C)(C)C)cc2)C(=O)N[C@@H](Cc2ccc3ccccc3c2)C(=O)NC2(C(=O)N[C@@H](CCCCNC(=O)CCCCCc3ccc(I)cc3)C(=O)N[C@@H](CC(N)=O)C(=O)N[C@@H](Cc3cccnc3)C(=O)N(C)CC(N)=O)CCOCC2)NC1=O [compound 546, MeCO-Pen(3)-N-T-7MeW-K(Ac)-Pen(3)-TMAPF-2Nal-THP-K(IPB)-N-3Pya-Sar-CONH2]	
144	> 16600	CC(=O)N(C)CCCC[C@@H]1NC(=O)[C@H](Cc2ccccc2)NC(=O)[C@H]([C@@H](C)O)NC(=O)[C@H](CC(=O)N(C)C)NC(=O)[C@@H](NC(=O)CCOCCOCC[N+](C)(C)C)C(C)(C)SSC(C)(C)[C@@H](C(=O)N[C@@H](Cc2ccc(OCCOCCOCC[N+](C)(C)C)cc2)C(=O)N[C@@H](Cc2ccccc2)C(=O)NC2(C(=O)N[C@@H](CCCCN(C)C(C)=O)C(=O)N[C@@H](CC(N)=O)C(=O)N[C@@H](Cc3cccnc3)C(=O)N(C)CC(=O)N(C)C)CCOCC2)NC1=O [compound 565, cPEG3aCO-Pen(3)-N(N(Me)2)-T-F-K(NMeAc)-Pen(3)-APEG3F-F-THP-K(NMeAc)-N-3Pya-Sar-CON(Me)2] ({Me3N+(CH2)2O(CH2)2O(CH2)2CO}-[Pen]D(NMe2)TF[Lys(Me)](Ac)[Pen]Y(CH2CH2OCH2CH2OCH2CH2NMe3+)F[Thp][Lys(Me)](Ac)N[3Pal][Sar]-NMe2; disulfide 1-6)	
141	2.1	CC(=O)N[C@@H]1C(=O)N[C@@H](CC(=O)N(C)C)C(=O)N[C@@H]([C@@H](C)O)C(=O)N[C@@H](Cc2c[nH]c3c(C)cccc23)C(=O)N[C@@H](CCCCN(C)C(C)=O)C(=O)N[C@H](C(=O)N[C@@H](Cc2ccc(OCCN(C)C)cc2)C(=O)N[C@@H](Cc2ccc3ccccc3c2)C(=O)NC2(C(=O)N[C@@H](CCCCN(C)C(C)=O)C(=O)N[C@@H](CC(N)=O)C(=O)N[C@@H](Cc3cccnc3)C(=O)N(C)CC(=O)N(C)C)CCOCC2)C(C)(C)SSC1(C)C [compound 122, MeCO-Pen(3)-N(N(Me)2)-T-7MeW-K(NMeAc)-Pen(3)-AEF(N(Me)2)-2Nal-THP-K(NMeAc)-N-3Pya-Sar-CON(Me)2] (Ac-[Pen]D(NMe2)T[Trp(7-Me)][Lys(Me)](Ac)[Pen]Y(Me2NCH2CH2)[2Nal][Thp][Lys(Me)](Ac)N[3Pal][Sar]-NMe2; disulfide 1-6)	
174	390	CC(=O)NCCCC[C@@H]1NC(=O)[C@H](Cc2c[nH]c3ccccc23)NC(=O)[C@H]([C@@H](C)O)NC(=O)[C@H](CC(N)=O)NC(=O)[C@@H](NC(=O)[C@@H](CCCNC(=N)N)NC(C)=O)CCSC[C@@](C)(C(=O)N[C@@H](Cc2ccc(OCCCCC[N+](C)(C)C)cc2)C(=O)N[C@@H](Cc2ccc3ccccc3c2)C(=O)NC2(C(=O)N[C@@H](CCCCNC(C)=O)C(=O)N[C@@H](CC(N)=O)C(=O)N[C@@H](Cc3cccnc3)C(=O)N(C)CC(N)=O)CCOCC2)NC1=O [compound 568, MeCO-r-Abu(1)-N-T-W-K(Ac)-aMeC(1)-TMAPF-2Nal-THP-K(Ac)-N-3Pya-Sar-CONH2] (Ac-[dR][Abu(4-yl)]NTWK(Ac)[αMeC]Y(X3)[2Nal][Thp]K(Ac)N[3Pal][Sar]-NH2; thioether 2-7)	
198	54	CC(=O)NCCCC[C@@H]1NC(=O)[C@H](Cc2c[nH]c3c(C)cccc23)NC(=O)[C@H]([C@@H](C)O)NC(=O)[C@H](CC(N)=O)NC(=O)[C@@H](NC(=O)COc2ccc(-c3ccc(F)cc3F)cc2C(=O)O)C(C)(C)SSC(C)(C)[C@@H](C(=O)N[C@@H](Cc2ccc(OCCCCC[N+](C)(C)C)cc2)C(=O)N[C@@H](Cc2ccc3ccccc3c2)C(=O)NC2(C(=O)N[C@@H](CCCCNC(=O)CCCc3ccc(I)cc3)C(=O)N[C@@H](CC(N)=O)C(=O)N[C@@H](Cc3cccnc3)C(=O)N(C)CC(N)=O)CCOCC2)NC1=O [compound 524, DFNCO-Pen(3)-N-T-7MeW-K(Ac)-Pen(3)-TMAPF-2Nal-THP-K(IPB)-N-3Pya-Sar-CONH2]	
169	8.4	CC(=O)NCCCC[C@@H]1NC(=O)[C@H](Cc2c[nH]c3c(-c4cccc(NC(C)=O)c4)cccc23)NC(=O)[C@H]([C@@H](C)O)NC(=O)[C@H](CC(N)=O)NC(=O)[C@@H](NC(C)=O)C(C)(C)SSC(C)(C)[C@@H](C(=O)N[C@@H](Cc2ccc(OCCCCC[N+](C)(C)C)cc2)C(=O)N[C@@H](Cc2ccc3ccccc3c2)C(=O)NC2(C(=O)N[C@@H](CCCCNC(C)=O)C(=O)N[C@@H](CC(N)=O)C(=O)N[C@@H](Cc3cncc(C)c3)C(=O)N(C)CC(N)=O)CCOCC2)NC1=O [compound 503, MeCO-Pen(3)-N-T-7(3NAcPh)W-K(Ac)-Pen(3)-TMAPF-2Nal-THP-K(Ac)-N-5MePyridinAla-Sar-CONH2]	
182	5.5	CCCCCCCCCCCC(=O)N[C@@H](CCC(=O)NCCOCCOCC(=O)NCCOCCOCC(=O)NCCCC[C@@H](C(N)=O)N(C)C(=O)[C@H](Cc1cccnc1)NC(=O)[C@H](CC(N)=O)NC(=O)[C@H](CCCCN(C)C(C)=O)NC(=O)C1(NC(=O)[C@H](Cc2ccc3ccccc3c2)NC(=O)[C@H](Cc2ccc(OCCCCC[N+](C)(C)C)cc2)NC(=O)[C@H]2NC(=O)[C@H](CCCCNC(C)=O)NC(=O)[C@H](Cc3c[nH]c4c(C)cccc34)NC(=O)[C@H]([C@@H](C)O)NC(=O)[C@H](CC(N)=O)NC(=O)[C@@H](NC(=O)CCOCCOCC[N+](C)(C)C)C(C)(C)SSC2(C)C)CCOCC1)C(=O)O [compound 371, cPEG3aCO-Pen(3)-N-T-7MeW-K(Ac)-Pen(3)-TMAPF-2Nal-THP-K(NMeac)-N-3Pya-NMeK(PEG2PEG2gEC12)-CONH2] ({Me3N+(CH2)2O(CH2)2O(CH2)2CO}-[Pen]NT[Trp(7-Me)]K(Ac)[Pen]Y(X3)[2Nal][Thp][Lys(Me)](Ac)N[3Pal][NMeK]([AEEA-AEEA-γGlu-Lauroyl])-NH2; disulfide 1-6)	
156	1.5	CC(=O)NCCCC[C@@H]1NC(=O)[C@H](Cc2c[nH]c3c(C)cccc23)NC(=O)[C@H]([C@@H](C)O)NC(=O)[C@H](CC(N)=O)NC(=O)[C@@H](NC(C)=O)C(C)(C)SSC(C)(C)[C@@H](C(=O)N[C@@H](Cc2ccc(OCCCCCCCC[N+](C)(C)C)cc2)C(=O)N[C@@H](Cc2ccc3ccccc3c2)C(=O)NC2(C(=O)N[C@@H](CCCCNC(C)=O)C(=O)N[C@@H](CC(N)=O)C(=O)N[C@@H](Cc3cccnc3)C(=O)N(C)CC(N)=O)CCOCC2)NC1=O [compound 456] (Ac-[Pen]NT[Trp(7-Me)]K(Ac)[Pen]Y(X8)[2Nal][Thp]K(Ac)N[3Pal][Sar]-NH2; disulfide 1-6 (inferred))	

Compound	EPSA ([1]; read-out: EPSA) [A^2]	IC50 (IL-23R) [nM]	EPSA [1] [Å^2]
cPEG3aCO-k(PEG2PEG2gEC14)-Pen(3)-N(N(Me)2)-T-7MeW-K(NMeAc)-Pen(3)-TMAPF-2Nal-THP-K(NMeAc)-N-3Pya-Sar-CON(Me)2 [compound 379]		12	149.74
